Measurements from ChEMBL document CHEMBL4811278, “Discovery of novel modulators for the PPARα (peroxisome proliferator activated receptor α): Potential therapies for nonalcoholic fatty liver disease” (Bioorg Med Chem, 2021).
Activity calls are given as the source filed them. The calls are words filed in the database; no cut-off is given here.

Key:
[1] = molecular target: T1, Peroxisome proliferator-activated receptor gamma (Homo sapiens, UniProt P37231); experiment: Agonist activity at Gal4-fused human PPARgamma expressed in monkey CV1 cells assessed as receptor transactivation incubated for 45 hrs by luciferase reporter gene assay; assay type: cell-based, CV-1
T1 sequence (P37231 whole entry): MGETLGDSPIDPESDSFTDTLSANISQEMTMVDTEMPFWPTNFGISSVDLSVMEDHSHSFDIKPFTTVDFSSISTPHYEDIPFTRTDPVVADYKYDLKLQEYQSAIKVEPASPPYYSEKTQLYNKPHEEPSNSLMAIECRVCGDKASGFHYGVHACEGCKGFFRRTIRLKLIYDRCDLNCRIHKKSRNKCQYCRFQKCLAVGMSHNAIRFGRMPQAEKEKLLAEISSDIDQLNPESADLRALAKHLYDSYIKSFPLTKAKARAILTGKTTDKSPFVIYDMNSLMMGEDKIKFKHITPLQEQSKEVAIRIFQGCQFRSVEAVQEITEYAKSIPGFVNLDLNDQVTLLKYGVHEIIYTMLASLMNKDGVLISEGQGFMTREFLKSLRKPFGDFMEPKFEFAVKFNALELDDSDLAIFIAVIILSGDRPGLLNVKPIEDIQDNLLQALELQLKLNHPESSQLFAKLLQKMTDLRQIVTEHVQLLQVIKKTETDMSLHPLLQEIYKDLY

[2] = molecular target: T2, Peroxisome proliferator-activated receptor delta (Homo sapiens, UniProt Q03181); experiment: Agonist activity at Gal4-fused human PPARdelta expressed in monkey CV1 cells assessed as receptor transactivation incubated for 45 hrs by luciferase reporter gene assay; assay type: cell-based, CV-1
T2 sequence (Q03181 whole entry): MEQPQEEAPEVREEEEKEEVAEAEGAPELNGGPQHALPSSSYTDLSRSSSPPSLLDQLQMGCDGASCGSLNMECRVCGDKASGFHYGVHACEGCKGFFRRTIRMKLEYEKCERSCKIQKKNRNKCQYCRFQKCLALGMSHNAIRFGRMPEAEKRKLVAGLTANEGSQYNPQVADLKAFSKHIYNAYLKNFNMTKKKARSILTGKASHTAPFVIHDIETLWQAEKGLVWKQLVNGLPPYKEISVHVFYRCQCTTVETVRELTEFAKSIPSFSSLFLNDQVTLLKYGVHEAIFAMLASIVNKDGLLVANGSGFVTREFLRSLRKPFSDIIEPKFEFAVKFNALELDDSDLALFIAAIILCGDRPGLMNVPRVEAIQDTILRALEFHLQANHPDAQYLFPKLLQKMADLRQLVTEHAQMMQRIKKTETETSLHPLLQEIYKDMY

Mus musculus [3] = experiment: Hypolipidemic activity in high fat diet-induced nonalcoholic steatohepatitis C57BL/6J mouse model assessed as reduction in plasma triglyceride level at 3 mg/kg, po administered via gavage and measured after 24 hrs; assay type: functional
[4] = molecular target: T3, Peroxisome proliferator-activated receptor alpha (Mus musculus) (UniProt P23204); experiment: In vivo agonist activity at PPARalpha in high fat diet-induced nonalcoholic steatohepatitis C57BL/6J mouse model assessed as increase in LPL mRNA expression in liver administered at 3 mg/kg, po and measured after 24 hrs by quantitative real time PCR analysis; assay type: functional, organism-based
T3 sequence (whole entry): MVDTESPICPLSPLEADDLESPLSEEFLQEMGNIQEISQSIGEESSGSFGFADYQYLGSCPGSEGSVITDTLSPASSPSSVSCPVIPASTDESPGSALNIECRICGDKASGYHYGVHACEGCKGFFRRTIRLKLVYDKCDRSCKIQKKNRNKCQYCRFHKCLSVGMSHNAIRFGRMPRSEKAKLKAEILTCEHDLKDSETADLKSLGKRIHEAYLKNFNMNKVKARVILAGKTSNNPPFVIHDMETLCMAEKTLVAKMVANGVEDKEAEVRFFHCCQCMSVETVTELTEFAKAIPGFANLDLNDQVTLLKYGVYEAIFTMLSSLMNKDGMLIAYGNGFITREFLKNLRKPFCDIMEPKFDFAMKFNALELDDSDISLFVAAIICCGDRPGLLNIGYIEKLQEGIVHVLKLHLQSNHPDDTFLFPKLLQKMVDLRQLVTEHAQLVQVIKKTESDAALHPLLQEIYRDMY

[5] = molecular target: T3, Peroxisome proliferator-activated receptor alpha (Mus musculus); experiment: In vivo agonist activity at PPARalpha in high fat diet-induced nonalcoholic steatohepatitis C57BL/6J mouse model assessed as trans-repression of ApoC3 mRNA expression in liver administered at 3 mg/kg, po and measured after 24 hrs by quantitative real time PCR analysis; assay type: functional, organism-based
[6] = molecular target: T3, Peroxisome proliferator-activated receptor alpha (Mus musculus); experiment: In vivo agonist activity at PPARalpha in high fat diet-induced nonalcoholic steatohepatitis C57BL/6J mouse model assessed as increase in ACOX1 mRNA expression in liver administered at 3 mg/kg, po and measured after 24 hrs by quantitative real time PCR analysis; assay type: functional, organism-based
[7] = molecular target: T3, Peroxisome proliferator-activated receptor alpha (Mus musculus); experiment: In vivo agonist activity at PPARalpha in high fat diet-induced nonalcoholic steatohepatitis C57BL/6J mouse model assessed as increase in Cyp4a3 mRNA expression in liver administered at 3 mg/kg, po and measured after 24 hrs by quantitative real time PCR analysis; assay type: functional, organism-based
Mus musculus [8] = experiment: Upregulation of PPARalpha expression in liver of high fat diet-induced nonalcoholic steatohepatitis C57BL/6J mouse model at 3 mg/kg, po and measured after 24 hrs by quantitative real time PCR analysis; assay type: functional, organism-based
[9] = molecular target: T4, Peroxisome proliferator-activated receptor alpha (Homo sapiens, UniProt Q07869); experiment: Agonist activity at Gal4-fused human PPARalpha co-expressed with RXRalpha in monkey CV1 cells assessed as PPRE transcriptional activation incubated for 45 hrs by luciferase reporter gene assay; assay type: cell-based, CV-1
T4 sequence (Q07869 whole entry): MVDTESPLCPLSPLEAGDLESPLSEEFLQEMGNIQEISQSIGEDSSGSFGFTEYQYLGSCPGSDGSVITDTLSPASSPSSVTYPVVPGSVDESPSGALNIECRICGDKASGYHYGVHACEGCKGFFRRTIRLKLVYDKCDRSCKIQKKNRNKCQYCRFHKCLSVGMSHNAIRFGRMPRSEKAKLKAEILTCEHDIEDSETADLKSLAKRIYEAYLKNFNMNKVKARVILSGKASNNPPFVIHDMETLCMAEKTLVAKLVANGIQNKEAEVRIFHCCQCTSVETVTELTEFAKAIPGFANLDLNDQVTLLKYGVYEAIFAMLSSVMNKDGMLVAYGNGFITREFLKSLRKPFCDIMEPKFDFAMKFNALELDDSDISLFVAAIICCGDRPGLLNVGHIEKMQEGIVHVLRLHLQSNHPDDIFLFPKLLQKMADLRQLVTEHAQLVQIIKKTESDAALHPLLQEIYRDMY

[10] = molecular target: T5, Peroxisome proliferator-activated receptor alpha (Mus musculus, UniProt P23204); experiment: Agonist activity at Gal4-fused mouse PPARalpha co-expressed with RXRalpha in monkey CV1 cells assessed as PPRE transcriptional activation incubated for 45 hrs by luciferase reporter gene assay; assay type: cell-based, CV-1
T5 sequence (P23204 whole entry): T3 sequence (whole entry)

[11] = molecular target: T3, Peroxisome proliferator-activated receptor alpha (Mus musculus); experiment: In vivo agonist activity at PPARalpha in high fat diet-induced nonalcoholic steatohepatitis C57BL/6J mouse model assessed as increase in Cyp4a3 mRNA expression in liver administered at 3 mg/kg, po administered once daily for 7 days by quantitative real time PCR analysis; assay type: functional, organism-based; details: time 7.0 day
[12] = molecular target: T3, Peroxisome proliferator-activated receptor alpha (Mus musculus); experiment: In vivo agonist activity at PPARalpha in high fat diet-induced nonalcoholic steatohepatitis C57BL/6J mouse model assessed as increase in LPL mRNA expression in liver administered at 3 mg/kg, po administered once daily for 7 days by quantitative real time PCR analysis; assay type: functional, organism-based; details: time 7.0 day
[13] = molecular target: T3, Peroxisome proliferator-activated receptor alpha (Mus musculus); experiment: In vivo agonist activity at PPARalpha in high fat diet-induced nonalcoholic steatohepatitis C57BL/6J mouse model assessed as increase in mCPT1A gene expression in liver at 3 mg/kg, po administered once daily for 7 days and measured at >3 days by quantitative real time PCR analysis; assay type: functional, organism-based; details: time day >3
[14] = molecular target: T3, Peroxisome proliferator-activated receptor alpha (Mus musculus); experiment: In vivo agonist activity at PPARalpha in high fat diet-induced nonalcoholic steatohepatitis C57BL/6J mouse model assessed as increase in mACADM gene expression in liver at 3 mg/kg, po administered once daily for 7 days by quantitative real time PCR analysis; assay type: functional, organism-based; details: time 7.0 day
[15] = Toxicity in high fat diet-induced nonalcoholic steatohepatitis C57BL/6J mouse model assessed as increase in plasma glucose level at 3 mg/kg, po administered once daily for 7 days and measured after 4 days; assay type: organism-based; details: in vivo, 96 h, time 4 day

SMILES | EC50 [1] [µM] | EC50 [2] [µM] | Activity [4] | Activity [5] | Activity [6] | Activity [7] | EC50 [9] [µM] | EC50 [10] [µM] | Activity [11] | Activity [12] | Activity [13] | Activity [14] | inhibition in vivo at 3 mg/kg (Mus musculus [3]) [%] | Activity (Mus musculus [8]) | Activity [15]
Cc1ccc(Cn2nc(CCCc3ccc(OC(C)(C)C(=O)O)cc3)n(Cc3ccccc3)c2=O)cc1 | > 10 | > 10 | Active | Active | Active | Active |  |  |  |  |  |  | ≥ 50 | Active | 
Cc1ccc(Cn2nc(CCCc3ccc(OC(C)(C)C(=O)O)cc3)n(Cc3ccc(Cl)cc3)c2=O)cc1 | > 10 | > 10 | Active | Active | Active | Active | 0.001 | 0.01 |  |  |  |  | ≥ 50 | Active | 
COc1cccc(Cn2c(CCCc3ccc(OC(C)(C)C(=O)O)cc3)nn(Cc3ccc(C)cc3)c2=O)c1 | > 10 | > 10 | Active | Active | Active | Active | 0.001 |  |  |  |  |  | ≥ 50 | Active | 
CC(C)(Sc1ccc(CCN(CCCCC2CCCCC2)C(=O)NC2CCCCC2)cc1)C(=O)O [GW7647] |  |  |  |  | inactive | inactive |  |  | Active | inactive | Active | Active | ≥ 50 |  | Toxic
C=Cc1ccc(Cn2nc(CCCc3ccc(OC(C)(C)C(=O)O)cc3)n(Cc3ccc(C)cc3)c2=O)cc1 | > 10 | > 10 | Active | Active | Active | Active | 0.012 | 0.02 |  |  |  |  | ≥ 50 | Active | 
COc1cc(Cn2c(CCCc3ccc(OC(C)(C)C(=O)O)cc3)nn(Cc3ccc(C)cc3)c2=O)cc(OC)c1OC | > 10 | > 10 | Active | Active | Active | Active |  |  |  |  |  |  | ≥ 50 | Active | 

Further lines, with some results ahead:

EC50 [1] [µM] | EC50 [2] [µM] | Activity [4] | Activity [5] | Activity [6] | Activity [7] | EC50 [9] [µM] | EC50 [10] [µM] | Activity [11] | Activity [12] | Activity [13] | Activity [14] | SMILES | inhibition in vivo at 3 mg/kg (Mus musculus [3]) [%] | Activity (Mus musculus [8]) | Activity [15]
 |  |  | Active | Active | Active |  |  |  |  |  |  | COc1ccc(Cn2c(CCCc3ccc(OC(C)(C)C(=O)O)cc3)nn(Cc3ccc(C(C)(C)C)cc3)c2=O)cc1 | ≥ 50 | Active | 
> 10 | > 10 | Active | Active | Active | Active | 0.00095 |  |  |  |  |  | Cc1ccc(Cn2nc(CCCc3ccc(OC(C)(C)C(=O)O)cc3)n(Cc3ccc(F)cc3)c2=O)cc1 | ≥ 50 | Active | 
> 10 | > 10 | Active | inactive | inactive | inactive | 0.00085 |  |  |  |  |  | Cc1ccc(Cn2nc(CCCc3ccc(OC(C)(C)C(=O)O)cc3)n(Cc3ccc(C)cc3)c2=O)cc1 | ≥ 50 | Active | 
